Measured values: ChEMBL document CHEMBL3769371, “1-[(2E)-3-Phenylprop-2-enoyl]-1H-benzimidazoles as anticancer agents: synthesis, crystal structure analysis and binding studies of the most potent anticancer molecule with serum albumin” (Medchemcomm, 2015)

How the values were obtained:
CCRF-CEM [1] = assay: Cytotoxicity against human CCRF-CEM cells assessed as cell growth at 10^-5 M after 48 hrs by SRB assay; type: functional; conditions: read-out: Activity
K562 [2] = assay: Cytotoxicity against human K562 cells assessed as cell growth at 10^-5 M after 48 hrs by SRB assay; type: functional; conditions: K562, 48 h, read-out: Activity
[3] = Cytotoxicity against human MOLT4 cells assessed as cell growth at 10^-5 M after 48 hrs by SRB assay; type: functional; conditions: MOLT-4, 48 h, read-out: Activity
A549 = assay: Cytotoxicity against human A549 cells assessed as cell growth at 10^-5 M after 48 hrs by SRB assay; type: functional; conditions: A549, 48 h, read-out: Activity
[4] = Cytotoxicity against human HOP62 cells assessed as cell growth at 10^-5 M after 48 hrs by SRB assay; type: functional; conditions: HOP-62, 48 h, read-out: Activity
NCI-H23 = assay: Cytotoxicity against human NCI-H23 cells assessed as cell growth at 10^-5 M after 48 hrs by SRB assay; type: functional; conditions: NCI-H23, 48 h, read-out: Activity
[5] = Cytotoxicity against human SF295 cells assessed as cell growth at 10^-5 M after 48 hrs by SRB assay; type: functional; conditions: SF-295, 48 h, read-out: Activity
[6] = Cytotoxicity against human SF539 cells assessed as cell growth at 10^-5 M after 48 hrs by SRB assay; type: functional; conditions: SF-539, 48 h, read-out: Activity
U-251 = assay: Cytotoxicity against human U251 cells assessed as cell growth at 10^-5 M after 48 hrs by SRB assay; type: functional; conditions: U-251, 48 h, read-out: Activity
SK-MEL-5 = assay: Cytotoxicity against human SK-MEL-5 cells assessed as cell growth at 10^-5 M after 48 hrs by SRB assay; type: functional; conditions: SK-MEL-5, 48 h, read-out: Activity
[7] = Cytotoxicity against human OVCAR8 cells assessed as cell growth at 10^-5 M after 48 hrs by SRB assay; type: functional; conditions: OVCAR-8, 48 h, read-out: Activity
SN12C [8] = assay: Cytotoxicity against human SN12C cells assessed as cell growth at 10^-5 M after 48 hrs by SRB assay; type: functional; conditions: read-out: Activity
[9] = Cytotoxicity against human PC3 cells assessed as cell growth at 10^-5 M after 48 hrs by SRB assay; type: functional; conditions: PC-3, 48 h, read-out: Activity
MCF7 [10] = assay: Cytotoxicity against human MCF7 cells assessed as cell growth at 10^-5 M after 48 hrs by SRB assay; type: functional; conditions: MCF7, 48 h, read-out: Activity
MDA-MB-231 = assay: Cytotoxicity against human MDA-MB-231 cells assessed as cell growth at 10^-5 M after 48 hrs by SRB assay; type: functional; conditions: MDA-MB-231, 48 h, read-out: Activity
[11] = Cytotoxicity against human Hs 578T cells assessed as cell growth at 10^-5 M after 48 hrs by SRB assay; type: functional; conditions: read-out: Activity
CCRF-CEM [12] = assay: Cytotoxicity against human CCRF-CEM cells after 48 hrs by SRB assay; type: functional
NCI-H322M = assay: Cytotoxicity against human NCI-H322M cells after 48 hrs by SRB assay; type: functional
[13] = Cytotoxicity against human HCT15 cells after 48 hrs by SRB assay; type: functional; conditions: HCT-15, 48 h
[14] = Cytotoxicity against human SF539 cells after 48 hrs by SRB assay; type: functional; conditions: SF-539, 48 h
[15] = Cytotoxicity against human LOXIMVI cells after 48 hrs by SRB assay; type: functional; conditions: LOX IMVI
M14 = assay: Cytotoxicity against human M14 cells after 48 hrs by SRB assay; type: functional; conditions: M14, 48 h
[16] = Cytotoxicity against human OVCAR5 cells after 48 hrs by SRB assay; type: functional; conditions: OVCAR-5, 48 h, read-out: LC50 (the source's name)
[17] = Cytotoxicity against human OVCAR8 cells after 48 hrs by SRB assay; type: functional; conditions: OVCAR-8, 48 h
[18] = Cytotoxicity against human SKOV3 cells after 48 hrs by SRB assay; type: functional; conditions: SK-OV-3, 48 h
A498 = assay: Cytotoxicity against human A498 cells after 48 hrs by SRB assay; type: functional; conditions: A498, 48 h
[19] = Cytotoxicity against human Caki1 cells after 48 hrs by SRB assay; type: functional; conditions: CAKI-1, 48 h
[20] = Cytotoxicity against human RXF393 cells after 48 hrs by SRB assay; type: functional; conditions: RXF 393, 48 h
SN12C [21] = assay: Cytotoxicity against human SN12C cells after 48 hrs by SRB assay; type: functional
MCF7 [22] = assay: Cytotoxicity against human MCF7 cells after 48 hrs by SRB assay; type: functional; conditions: MCF7, 48 h
[23] = Cytotoxicity against human BT549 cells after 48 hrs by SRB assay; type: functional; conditions: BT-549, 48 h
Albumin [24] = molecular target: T1, Albumin (Homo sapiens, UniProt P02768); assay: Binding affinity to human serum albumin at 0.25 to 2 uM at 303 K by fluorescence microscopic analysis in the presence of digitoxin; type: ADME; conditions: isolated protein
T1 sequence (P02768 whole entry): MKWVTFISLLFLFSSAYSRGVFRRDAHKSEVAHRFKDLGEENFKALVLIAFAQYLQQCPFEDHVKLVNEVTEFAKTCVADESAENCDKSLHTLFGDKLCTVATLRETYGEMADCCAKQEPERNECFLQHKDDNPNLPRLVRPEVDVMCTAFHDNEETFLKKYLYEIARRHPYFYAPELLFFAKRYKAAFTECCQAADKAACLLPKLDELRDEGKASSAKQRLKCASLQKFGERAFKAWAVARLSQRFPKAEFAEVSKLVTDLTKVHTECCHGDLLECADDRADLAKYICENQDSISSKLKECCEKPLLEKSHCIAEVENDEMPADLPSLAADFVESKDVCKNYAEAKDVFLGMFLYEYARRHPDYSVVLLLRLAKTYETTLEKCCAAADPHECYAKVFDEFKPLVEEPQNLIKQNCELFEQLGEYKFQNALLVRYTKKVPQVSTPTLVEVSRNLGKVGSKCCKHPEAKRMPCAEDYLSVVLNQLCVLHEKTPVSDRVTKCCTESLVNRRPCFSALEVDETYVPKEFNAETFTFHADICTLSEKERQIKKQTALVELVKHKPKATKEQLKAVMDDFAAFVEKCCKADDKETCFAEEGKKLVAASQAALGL

Albumin [25] = molecular target: T1, Albumin; assay: Binding affinity to human serum albumin at 0.25 uM at 303 K by fluorescence microscopic analysis in the presence of Co2+; type: ADME; conditions: isolated protein
Albumin [26] = molecular target: T1, Albumin; assay: Binding affinity to human serum albumin at 0.25 uM at 303 K by fluorescence microscopic analysis in the presence of Cu2+; type: ADME; conditions: isolated protein
Albumin [27] = molecular target: T1, Albumin; assay: Binding affinity to human serum albumin at 0.25 uM at 303 K by fluorescence microscopic analysis in the presence of Mn2+; type: ADME; conditions: isolated protein
Albumin [28] = molecular target: T1, Albumin; assay: Binding affinity to human serum albumin at 0.25 uM at 303 K by fluorescence microscopic analysis in the presence of Ni2+; type: ADME; conditions: isolated protein
K562 [29] = assay: Antiproliferative activity against human K562 cells at 10'5 M; type: functional
[30] = Antiproliferative activity against human HCC2998 cells at 10'5 M; type: functional, HCC 2998
[31] = Antiproliferative activity against human SNB75 cells at 10'5 M; type: functional, SNB-75
[32] = Antiproliferative activity against human OVCAR4 cells at 10'5 M; type: functional, OVCAR-4
[33] = read-out: LC50 (the source's name)

For `O=C(/C=C/c1ccccc1)n1c(-c2ccc(Cl)cc2)nc2ccccc21`, which growth at 10 µM (CCRF-CEM [1]) is on record?
The growth at 10 µM was -23.9%.

And the growth at 10 µM (K562 [2])?
The growth at 10 µM was 39.8%.

What about the growth at 10 µM [3] of the same compound?
Its growth at 10 µM is 21.9%.

And the growth at 10 µM (A549)?
The growth at 10 µM was -4.99%.

What about the growth at 10 µM [4] of the same compound?
Its growth at 10 µM is -48.8%.

What about the growth at 10 µM (NCI-H23) of the same compound?
Its growth at 10 µM is -24.5%.

What about the growth at 10 µM [5] of the same compound?
Its growth at 10 µM is -52%.

And the growth at 10 µM [6]?
Its growth at 10 µM is -48.4%.

And the growth at 10 µM (U-251)?
Its growth at 10 µM is -0.39%.

And the growth at 10 µM (SK-MEL-5)?
Its growth at 10 µM is -70.6%.

What about the growth at 10 µM [7] of the same compound?
The growth at 10 µM was -31.3%.

And the growth at 10 µM (SN12C [8])?
The growth at 10 µM was -48.5%.

And the growth at 10 µM [9]?
Its growth at 10 µM is 6.09%.

And the growth at 10 µM (MCF7 [10])?
The growth at 10 µM was 10.3%.

And the growth at 10 µM (MDA-MB-231)?
Its growth at 10 µM is -26.5%.

And the growth at 10 µM [11]?
The growth at 10 µM was 20%.

And the GI50 (CCRF-CEM [12])?
The GI50 was 730 nM.

And the TGI (CCRF-CEM [12])?
Its TGI is 3.45 µM.

What about the CC50 (CCRF-CEM [12]; [33]) of the same compound?
The CC50 was over 100 µM.

What about the GI50 (NCI-H322M) of the same compound?
The GI50 was 1910 nM.

And the TGI (NCI-H322M)?
The TGI was 4.89 µM.

And the CC50 (NCI-H322M; [33])?
Its CC50 is 20 µM.

And the GI50 [13]?
Its GI50 is 1210 nM.

And the TGI [13]?
The TGI was 2880 nM.

And the CC50 [13, 33]?
Its CC50 is 6.9 µM.

And the GI50 [14]?
The GI50 was 2500 nM.

And the TGI [14]?
Its TGI is 6.46 µM.

What about the CC50 [14, 33] of the same compound?
The CC50 was 26.1 µM.

And the GI50 [15]?
The GI50 was 1600 nM.

What about the TGI [15] of the same compound?
The TGI was 3.22 µM.

And the CC50 [15, 33]?
The CC50 was 6.5 µM.

What about the GI50 (M14) of the same compound?
Its GI50 is 1630 nM.

And the TGI (M14)?
Its TGI is 5.74 µM.

And the CC50 (M14; [33])?
Its CC50 is 26 µM.

And the CC50 [16]?
The CC50 was 49.7 µM.

And the GI50 [17]?
The GI50 was 1740 nM.

What about the TGI [17] of the same compound?
The TGI was 4.21 µM.

What about the CC50 [17, 33] of the same compound?
The CC50 was 10.5 µM.

What about the GI50 [18] of the same compound?
Its GI50 is 1490 nM.

And the TGI [18]?
The TGI was 61.3 µM.

What about the CC50 [18, 33] of the same compound?
The CC50 was over 100 µM.

And the GI50 (A498)?
Its GI50 is 2050 nM.

And the TGI (A498)?
The TGI was 7.63 µM.

And the CC50 (A498; [33])?
The CC50 was 28.4 µM.

What about the GI50 [19] of the same compound?
The GI50 was 1180 nM.

What about the TGI [19] of the same compound?
Its TGI is 10 µM.

What about the CC50 [19, 33] of the same compound?
The CC50 was 31.7 µM.

What about the GI50 [20] of the same compound?
Its GI50 is 1320 nM.

What about the TGI [20] of the same compound?
Its TGI is 3.12 µM.

What about the CC50 [20, 33] of the same compound?
The CC50 was 7.37 µM.

And the GI50 (SN12C [21])?
Its GI50 is 1390 nM.

What about the TGI (SN12C [21]) of the same compound?
Its TGI is 2760 nM.

What about the CC50 (SN12C [21]; [33]) of the same compound?
Its CC50 is 5.46 µM.

What about the GI50 (MCF7 [22]) of the same compound?
Its GI50 is 1010 nM.

What about the TGI (MCF7 [22]) of the same compound?
Its TGI is 9.92 µM.

What about the CC50 (MCF7 [22]; [33]) of the same compound?
The CC50 was 55.5 µM.

What about the GI50 [23] of the same compound?
Its GI50 is 1670 nM.

What about the TGI [23] of the same compound?
Its TGI is 3.22 µM.

And the CC50 [23, 33]?
The CC50 was 6.18 µM.

And the K (Albumin [24])?
The K was 5.73 ×10³ /M.

What about the K (Albumin [25]) of the same compound?
Its K is 4.09 ×10³ /mol.

And the K (Albumin [26])?
Its K is 2.44 ×10³ /mol.

And the K (Albumin [27])?
The K was 3.85 ×10³ /mol.

And the K (Albumin [28])?
Its K is 5.35 ×10³ /mol.

And the “growth inhibition (GI)” value (K562 [29])?
The value was 60.22%.

What about the “growth inhibition (GI)” value [30] of the same compound?
The value was 94.92%.

And the “growth inhibition (GI)” value [31]?
The value was 81.93%.

And the “growth inhibition (GI)” value [32]?
Its value is 69.96%.
